Assay results as given in publication PMC10122656, “Siglec-6 mediates the uptake of extracellular vesicles through a noncanonical glycolipid binding pocket” (Nature Communications, 2023).
“And” between values parts separate entries of the source, which are not always exact repeats. Equal entries are not always repeated.

How the values were obtained:
Test in all cases: Cell assay (liposome/EV binding, flow cytometry);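 for liposome binding, fluorescence signal (replicates): AF647 fluorescence intensity from 0.1 mol% AF647–PEG45–DSPE in liposomes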
[1] = target: T1, CHO cells expressing Siglec-6 mutants (C46A, C172A, R to A mutants, F93A, L95A, G175M) (Homo sapiens, UniProt O43699, R90A); assay type: cell-based; conditions: sheet Figure S26a, 3% GM3-DAG liposomes, R90A
T1 construct: These new CHO cell lines are the full-length versions of the Siglecs; expressed in transfected cells
T1 sequence (O43699 27-453 R90A): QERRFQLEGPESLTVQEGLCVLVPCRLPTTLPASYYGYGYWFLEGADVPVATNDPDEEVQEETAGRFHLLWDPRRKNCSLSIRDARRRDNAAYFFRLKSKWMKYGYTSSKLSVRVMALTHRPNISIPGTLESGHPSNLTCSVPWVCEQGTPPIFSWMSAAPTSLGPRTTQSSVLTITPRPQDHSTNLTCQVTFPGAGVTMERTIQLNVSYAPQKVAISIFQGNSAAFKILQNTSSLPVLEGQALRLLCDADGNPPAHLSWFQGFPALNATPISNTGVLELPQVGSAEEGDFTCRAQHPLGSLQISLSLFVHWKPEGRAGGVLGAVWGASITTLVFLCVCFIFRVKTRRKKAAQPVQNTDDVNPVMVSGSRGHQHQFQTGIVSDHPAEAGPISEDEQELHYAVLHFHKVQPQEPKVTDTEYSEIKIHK
Protocol: (§1) Mutations were introduced into each Siglec via gene overlap extension PCR mutagenesis (primers were ordered through IDT). Mutagenesis primers can be found in Supplementary Tables 2 and 3 for the critical arginine mutants of the entire Siglec family and the additional Siglec-6 mutants respectively.
(§2) 200,000 cells/well were plated into a 96-well U-bottom microplate and centrifuged at 300 × g for 5 min. The cells were then resuspended in 50 µL of 50 µM liposome/50 µg/mL (protein concentration) of EV solution in DMEM F12 5% FBS and incubated at 37 °C for 30 min. Excess liposomes were then removed via centrifuged at 300 × g for 5 min followed by washing the cells with FACS solution. The cells were then resuspended in (1:250 V/V) anti-Siglec-flow buffer (1% V/V FBS, 500 µM, EDTA Hank’s Balanced Salt Solution pH 7.4), solution and left to rest on ice for 30 min. The cells were then centrifuged again at 300 × g for 5 min and the cells were resuspended in FACS buffer solution and were then ready for analysis by flow cytometry. Information regarding antibody clone, catalog number supplier, label isotype, and dilution can be found in Supplementary Table 6. The Siglec-positive cells were gated on for liposome-binding analysis (Supplementary Fig. 1b).
(§3) Flow cytometry measurements were collected on a 5-laser Fortessa X-20 (BD Bioscience). All the resulting data were analyzed using FlowJo (10.5.3) software (BD Biosciences).

[2] = target: T2, CHO cells expressing Siglec-6 mutants (C46A, C172A, R to A mutants, F93A, L95A, G175M) (Homo sapiens, UniProt O43699, F93A); assay type: cell-based; conditions: sheet Figure S28b, 3% GM3-DAG liposomes, F93A
T2 construct: These new CHO cell lines are the full-length versions of the Siglecs; expressed in transfected cells
T2 sequence (O43699 27-453 F93A): as the sequence (O43699 27-453 R90A) above, with A64R, F67A counted along it
Protocol: as §1, §2, §3

[3] = target: T3, CHO cells expressing Siglec-6 mutants (C46A, C172A, R to A mutants, F93A, L95A, G175M) (Homo sapiens, UniProt O43699, G175M); assay type: cell-based; conditions: sheet Figure S28b, 3% GM3-DAG liposomes, G175M
T3 construct: These new CHO cell lines are the full-length versions of the Siglecs; expressed in transfected cells
T3 sequence (O43699 27-453 G175M): as the sequence (O43699 27-453 R90A) above, with A64R, G149M counted along it
Protocol: as §1, §2, §3

[4] = target: T4, CHO cells expressing Siglec-6 mutants (C46A, C172A, R to A mutants, F93A, L95A, G175M) (Homo sapiens, UniProt O43699, R109A); assay type: cell-based; conditions: sheet Figure S26a, 3% GM3-DAG liposomes, R109A
T4 construct: These new CHO cell lines are the full-length versions of the Siglecs; expressed in transfected cells
T4 sequence (O43699 27-453 R109A): as the sequence (O43699 27-453 R90A) above, with A64R, R83A counted along it
Protocol: as §1, §2, §3

[5] = target: T5, CHO cells expressing Siglec-6 mutants (C46A, C172A, R to A mutants, F93A, L95A, G175M) (Homo sapiens, UniProt O43699, Q174A); assay type: cell-based; conditions: sheet Figure S28b, 3% GM3-DAG liposomes, Q174A
T5 construct: These new CHO cell lines are the full-length versions of the Siglecs; expressed in transfected cells
T5 sequence (O43699 27-453 Q174A): as the sequence (O43699 27-453 R90A) above, with A64R, Q148A counted along it
Protocol: as §1, §2, §3

[6] = target: T6, CHO cells expressing Siglec-6 mutants (C46A, C172A, R to A mutants, F93A, L95A, G175M) (Homo sapiens, UniProt O43699, E173A); assay type: cell-based; conditions: sheet Figure S28b, 3% GM3-DAG liposomes, E173A
T6 construct: These new CHO cell lines are the full-length versions of the Siglecs; expressed in transfected cells
T6 sequence (O43699 27-453 E173A): as the sequence (O43699 27-453 R90A) above, with A64R, E147A counted along it
Protocol: as §1, §2, §3

[7] = target: T7, CHO cells expressing Siglec-6 mutants (C46A, C172A, R to A mutants, F93A, L95A, G175M) (Homo sapiens, UniProt O43699, C46A); assay type: cell-based; conditions: sheet Figure S26a, 3% GM3-DAG liposomes, C46A
T7 construct: These new CHO cell lines are the full-length versions of the Siglecs; expressed in transfected cells
T7 sequence (O43699 27-453 C46A): as the sequence (O43699 27-453 R90A) above, with C20A, A64R counted along it
Protocol: as §1, §2, §3

[8] = target: T8, CHO cells expressing Siglec-6 mutants (C46A, C172A, R to A mutants, F93A, L95A, G175M) (Homo sapiens, UniProt O43699, R113A); assay type: cell-based; conditions: sheet Figure S26a, 3% GM3-DAG liposomes, R113A
T8 construct: These new CHO cell lines are the full-length versions of the Siglecs; expressed in transfected cells
T8 sequence (O43699 27-453 R113A): as the sequence (O43699 27-453 R90A) above, with A64R, R87A counted along it
Protocol: as §1, §2, §3

[9] = target: T9, CHO cells expressing Siglec-6 mutants (C46A, C172A, R to A mutants, F93A, L95A, G175M) (Homo sapiens, UniProt O43699, R92A); assay type: cell-based; conditions: sheet Figure S26a, 3% GM3-DAG liposomes, R92A
T9 construct: These new CHO cell lines are the full-length versions of the Siglecs; expressed in transfected cells
T9 sequence (O43699 27-453 R92A): as the sequence (O43699 27-453 R90A) above, with A64R, R66A counted along it
Protocol: as §1, §2, §3

[10] = target: T10, CHO cells expressing Siglec-6 mutants (C46A, C172A, R to A mutants, F93A, L95A, G175M) (Homo sapiens, UniProt O43699, R147A); assay type: cell-based; conditions: sheet Figure S26a, 3% GM3-DAG liposomes, R147A
T10 construct: These new CHO cell lines are the full-length versions of the Siglecs; expressed in transfected cells
T10 sequence (O43699 27-453 R147A): as the sequence (O43699 27-453 R90A) above, with A64R, R121A counted along it
Protocol: as §1, §2, §3

[11] = target: T11, CHO cells expressing Siglec-6 mutants (C46A, C172A, R to A mutants, F93A, L95A, G175M) (Homo sapiens, UniProt O43699, R101A); assay type: cell-based; conditions: sheet Figure S26a, 3% GM3-DAG liposomes, R101A
T11 construct: These new CHO cell lines are the full-length versions of the Siglecs; expressed in transfected cells
T11 sequence (O43699 27-453 R101A): as the sequence (O43699 27-453 R90A) above, with A64R, R75A counted along it
Protocol: as §1, §2, §3

[12] = target: T12, CHO cells expressing Siglec-6 mutants (C46A, C172A, R to A mutants, F93A, L95A, G175M) (Homo sapiens, UniProt O43699, R100A); assay type: cell-based; conditions: sheet Figure S26a, 3% GM3-DAG liposomes, R100A
T12 construct: These new CHO cell lines are the full-length versions of the Siglecs; expressed in transfected cells
T12 sequence (O43699 27-453 R100A): as the sequence (O43699 27-453 R90A) above, with A64R, R74A counted along it
Protocol: as §1, §2, §3

[13] = target: T13, CHO cells expressing Siglec-6 mutants (C46A, C172A, R to A mutants, F93A, L95A, G175M) (Homo sapiens, UniProt O43699, R112A); assay type: cell-based; conditions: sheet Figure S26a, 3% GM3-DAG liposomes, R112A
T13 construct: These new CHO cell lines are the full-length versions of the Siglecs; expressed in transfected cells
T13 sequence (O43699 27-453 R112A): as the sequence (O43699 27-453 R90A) above, with A64R, R86A counted along it
Protocol: as §1, §2, §3

[14] = target: T14, CHO cells expressing Siglec-6 mutants (C46A, C172A, R to A mutants, F93A, L95A, G175M) (Homo sapiens, UniProt O43699, E88A); assay type: cell-based; conditions: sheet Figure S28b, 3% GM3-DAG liposomes, E88A
T14 construct: These new CHO cell lines are the full-length versions of the Siglecs; expressed in transfected cells
T14 sequence (O43699 27-453 E88A): as the sequence (O43699 27-453 R90A) above, with E62A, A64R counted along it
Protocol: as §1, §2, §3

[15] = target: T15, CHO cells expressing Siglec-6 mutants (C46A, C172A, R to A mutants, F93A, L95A, G175M) (Homo sapiens, UniProt O43699, E87A); assay type: cell-based; conditions: sheet Figure S28b, 3% GM3-DAG liposomes, E87A
T15 construct: These new CHO cell lines are the full-length versions of the Siglecs; expressed in transfected cells
T15 sequence (O43699 27-453 E87A): as the sequence (O43699 27-453 R90A) above, with E61A, A64R counted along it
Protocol: as §1, §2, §3

[16] = system: CHO cells expressing Siglec-6 mutants (C46A, C172A, R to A mutants, F93A, L95A, G175M); assay type: cell-based, human; conditions: cell assay
Protocol: as §1, §2, §3

`CCCCCCCCCCCCCCCCOCC(COCCCCCCCCCCCCCCCC)OCc1cn(CCO[C@@H]2O[C@H](CO)[C@@H](O[C@@H]3O[C@H](CO)[C@H](O)[C@H](O[C@]4(C(=O)O)C[C@H](O)[C@@H](NC(C)=O)[C@H]([C@H](O)[C@H](O)CO)O4)[C@H]3O)[C@H](O)[C@H]2O)nn1` [GM3-DAG] was tested, and the “liposome binding, fluorescence signal (replicates)” value (“liposome binding” for short) [1] was 6321 and 6067 and 6474 and 6517, the “liposome binding” value [2] was 1045 and 1034 and 1148 and the “liposome binding” value [3] was 928 and 1026 and 962 and 868. For the same molecule, the “liposome binding” value [4] was 3678 and 3427 and 3246 and 4185, the “liposome binding” value [5] was 1364 and 1584 and 1412 and the “liposome binding” value [6] was 1703 and 1773 and 1881 and 1652. For the same molecule, the “liposome binding” value [7] was 789 and 784 and 873 and 937, the “liposome binding” value [8] was 4924 and 3926 and 3532 and 5592 and the “liposome binding” value [9] was 242 and 228 and 244 and 252. The “liposome binding” value [10] was 10179 and 9364 and 9449 and 10723, the “liposome binding” value [11] was 5191 and 3671 and 4272 and 5125 and the “liposome binding” value [12] was 2485 and 2181 and 2573 and 2894. The “liposome binding” value [13] was 4575 and 4566 and 3393 and 4882, the “liposome binding” value [14] was 2063 and 2173 and 2053 and the “liposome binding” value [15] was 2391 and 2152 and 2127.
`CCCCCCCCCCCCCCCCOCC(COCCCCCCCCCCCCCCCC)OCc1cn(CCO[C@@H]2O[C@H](CO)[C@@H](O[C@@H]3O[C@H](CO)[C@H](O)[C@H](O[C@]4(C(=O)O)C[C@H](O)[C@@H](NC(C)=O)[C@H]([C@H](O)[C@H](O)CO)O4)[C@H]3O)[C@H](O)[C@H]2O)nn1` [nGL 5] was tested, and the “5 nGLL binding to C46A and C172A mutants of Siglec-6” value [16] was “did not recognize”, the “5 nGLL binding to F93A, L95A and G175M Siglec-6 mutants” value [16] was “significantly decreased binding” and the “5 nGLL binding to R109A and R114A Siglec-6 mutants” value [16] was “modest reduction in binding”. For the same molecule, the “5 nGLL binding to R92A and R100A Siglec-6 mutants” value ([16]; both expressed at low levels) was “more pronounced reduction in binding”.
